{
  "source": "patent US7173061B2",
  "about": "“Compounds for imaging alzheimer's disease” (GE Healthcare Limited, priority 2001, dated 2007)",
  "molecular_target": "T1, amyloid 1-40 fibrils (fibrillar BAP 1-40) (Homo sapiens, UniProt P05067)",
  "T1 construct": "used to immobilise fibrillar Beta-Amyloid Protein (BAP 1-40); purchased Biosource 03-138 (BAP 1-40); 03-243 (biotinylated BAP 1-40)",
  "T1 sequence (P05067 672-711)": "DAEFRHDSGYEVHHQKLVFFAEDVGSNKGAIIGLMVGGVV",
  "experiment": "Determination of amyloid binding (scintillation proximity assay beads coated with fibrillar BAP 1-40)",
  "details": "SPA-BAP beads, 180 minutes at room temperature, equimolar amounts, SPA-NSB counts subtracted; 125I-BAP binding taken as 100%",
  "procedure": "The binding of Compounds was determined compared to the ability of ^125I-beta amyloid protein 1-40 (^125I-BAP 1-40, Amersham Biosciences IM294)) to bind to amyloid 1-40 fibrils. Amyloid binding was essentially performed as follows.\nThree fresh buffer stocks were prepared for experiments: Buffer 1, 50 mM HEPES/0.1% Bovine Serum Albumin (BSA) pH 7.5; Buffer 2, 50 mM HEPES/0.1% BSA/400 μM ZnCl2 pH 7.5; Buffer 3, 50 mM HEPES/0.1% BSA/100 μM ZnCl2 pH 7.5.\nStreptavidin coated scintillation proximity assay beads (SA-SPA beads, Amersham Biosciences) were used to immobilise fibrillar Beta-Amyloid Protein (BAP 1-40). Amyloid coated beads (SPA-BAP) were prepared by incubating 250 μl SA-SPA beads (100 mg/ml) with 250 μl Buffer 2, 425 μl Buffer 1, 50 μl biotinylated BAP 1-40 (0.5 mg/ml, Biosource 03–243), 25 μl BAP 1-40 (10 mg/ml, Biosource 03–138). Non-specific binding SPA beads (SPA-NSB) were prepared to assess the binding of compounds to SPA beads with no associated BAP 1-40 fibrils in the following incubation: 250 μl SA-SPA beads (100 mg/ml) with 250 μl Buffer 2, 500 μl Buffer 1.\nSPA-BAP and SPA-NSB incubations were left for 24 hours at room temperature and then spun 1.5 ml tubes (eppendorf, Merk, 306/0421/12) for 2 minutes at 1000×g. The supernatants were removed and the beads were washed twice by resuspending them in 1 ml Buffer 3 followed by centrifugation for 2 minutes at 1000×g. Finally, washed SPA-BAP and SPA-NSB beads were resuspended in 1 ml Buffer 3.\nAmyloid binding of ^125I-BAP 1-40 and test compounds was performed in triplicate in 0.5 ml tubes (eppendorf, Merk, 306/0421/02) by adding 50 μl SPA-BAP beads to 25 μl Buffer 2 and 25 μl labelled compound (^125I-BAP 1-40 or test compound). Tubes were then incubated for 180 minutes at room temperature with shaking, followed by centrifugation for 2 minutes at 1000×g. The supematants were removed and SPA-BAP pellet washed twice with 300 μl Buffer 3 containing 1% TWEEN-20 (Sigma, P7949). Non-specific binding for labelled compounds to the SPA beads was determined using incubations as described above but by substituting SPA-BAP beads with SPA-NSB beads. Radioactivity associated with the washed SPA bead pellets was then determined.\nThe affinity of labelled compounds for fibrillar BAP 1-40 was estimated by subtracting SPA-NSB associated counts from SPA-BAP associated counts. The binding of labelled compounds was then compared to ^125I-BAP binding, which was taken as being 100%.\nIn these experiments, ^125I-BAP 1-40 or test compounds were added in equimolar amounts.",
  "note": "No end group written: not given here.",
  "data": [
    {"molecule": "CCN(CC)CCOc1ccc(C(=O)c2c(-c3ccc(OCC(=O)NCCN(CCNC(C)(C)/C(C)=N\\O)CCNC(C)(C)/C(C)=N\\O)cc3)oc3ccc(Cl)cc23)cc1", "note": "[Example 1(vii) Pn216 conjugated]", "values": [
      {"measurement": "Amyloid binding (% of 125I-BAP 1-40)", "value": 23, "unit": "%"}
    ]},
    {"molecule": "CCN(CC)CCCOc1ccc(C(=O)c2c(-c3ccc(OCC(=O)NCCN(CCNC(C)(C)/C(C)=N/O)CCNC(C)(C)/C(C)=N/O)cc3)oc3ccc(Cl)cc23)cc1", "note": "[Example 2(vii) Pn216 conjugated]", "values": [
      {"measurement": "Amyloid binding (% of 125I-BAP 1-40)", "value": 15, "unit": "%"}
    ]},
    {"molecule": "C/C(=N\\O)C(C)(C)NCCN(CCNC(=O)COc1ccc(-c2cc3cc(Cl)ccc3o2)cc1)CCNC(C)(C)/C(C)=N/O", "note": "[Example 8(iii) Pn216 conjugated]", "values": [
      {"measurement": "Amyloid binding (% of 125I-BAP 1-40)", "value": 40, "unit": "%"}
    ]},
    {"molecule": "^125I-BAP 1-40: 125I-beta amyloid protein 1-40, Amersham Biosciences IM294; reference whose binding to amyloid fibrils is taken as 100% [reference compound]", "values": [
      {"measurement": "Amyloid binding (% of 125I-BAP 1-40)", "value": 100, "unit": "%"}
    ]},
    {"molecule": "^125I-KKLVFFA (BAP 15-21): 125I-labelled BAP 15–21 sequence (Amersham Biosciences), responsible for the binding of BAP to itself (also: 125I label) [reference compound]", "values": [
      {"measurement": "Amyloid binding (% of 125I-BAP 1-40)", "value": 21, "unit": "%"}
    ]}
  ]
}
